How the values were obtained:
[1] = test system: Glucagon-like peptide-1 (GLP-1); assay: Total GLP-1 secretion at end of oral glucose tolerance test; assay type: in vivo; settings: C57/6N mice, 100 mg/kg oral; total GLP-1 at end of OGTT vs. control animals
Experimental: The effect of test compounds on the secretion of Glucagon-like peptide-1 (GLP-1) in C57/6N mice was determined at the end of the oral glucose tolerance test. Animals were anesthetized with pentobarbital and blood collected by heart puncture in potassium EDTA-coated microtainer tubes containing 10 μl/ml DPP-IV inhibitor and 500 KIU/ml Aprotinin. Total GLP-1 was measured using Mouse/Rat Total Glucagon-like peptide-1 assay kit (Meso Scale Discovery) and MSD SECTOR2400 Imager according to the manufacturer's instructions.
(§1) Oral glucose tolerance is expressed as a percent reduction in glucose excursion of animals receiving test compound vs. control animals. Incretin activity (i.e. incretin secretion) is expressed as an x-fold increase in GLP-1 production in animals receiving test compound vs. control animals.

human GPR131 = target: T1, human GPR131 (Homo sapiens, UniProt Q8TDU6); assay: Stimulation of cAMP in stable cell line expressing human GPR131 (FRET cAMP kit); assay type: cell-based; settings: 0.5 h; 1.1 μM compound, relative to maximal stimulatory activity of lithocholic acid at 3.3 μM; 30 minutes at 37° C.; read-out: Percent Activity @ 1.1 μM (of 3.3 uM LCA) (%)
T1 construct: expressed in transfected cells
T1 sequence (Q8TDU6 1-330): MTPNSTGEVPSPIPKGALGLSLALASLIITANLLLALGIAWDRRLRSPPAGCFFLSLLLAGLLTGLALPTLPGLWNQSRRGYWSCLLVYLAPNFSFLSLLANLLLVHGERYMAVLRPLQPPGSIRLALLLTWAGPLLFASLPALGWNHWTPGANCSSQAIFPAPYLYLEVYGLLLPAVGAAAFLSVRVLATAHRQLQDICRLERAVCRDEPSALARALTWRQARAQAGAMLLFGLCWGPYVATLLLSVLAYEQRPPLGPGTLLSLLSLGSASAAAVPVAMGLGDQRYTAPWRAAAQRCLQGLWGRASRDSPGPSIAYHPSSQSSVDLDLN
Outline: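 Stable human GPR131 cells in DMEM/F12 with 1 mM IBMX treated with compound for 30 min at 37° C. Intracellular cAMP measured by competitive FRET immunoassay (665/620 nm ratio). Values given as % activity at 1.1 μM compound relative to maximal lithocholic acid stimulation at 3.3 μM.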

[2] = Oral glucose tolerance test in C57BL/6N mice; assay type: in vivo; settings: 100 mg/kg oral, 3 g/kg glucose, percent reduction in glucose excursion (AUC 0-120 min) vs. control animals
Experimental: Male mice (8-10 week old C57BL/6N, Harlan Laboratories, Inc.) were maintained on 18% Protein Rodent diet (Teklad Global Diets, Harlan Laboratories, Inc). Overnight fasted mice were randomized into groups (n=8-10) to receive the test compounds at a dose of 100 mg/kg or the vehicle (1% CMC, 2% TWEEN 80). Compounds were delivered orally via gavage. Blood glucose levels were measured by glucometer before administration of compounds and at 30 minutes post compound. The mice were then dosed orally with 3 g/kg glucose. Blood glucose measurements were taken 20, 40, 60, 90 and 120 minutes after glucose administration. Glucose levels were plotted against time and the incremental area under the curve (AUC) of the glucose excursion was determined from T=0 to T=120 min.
as §1

[3] = test system: Glucagon-like peptide-2 (GLP-2); assay: Total GLP-2 secretion at end of OGTT in DIO mice; assay type: in vivo; settings: C57BL/6J DIO mice, 100 mg/kg oral; total GLP-2, 2 hours post glucose dosing
Experimental: (§2) 18 week old C57BL/6J diet induced obese (DIO) male mice were maintained on a 60 kcal % fat diet. Mice fasted for 9 hours were randomized into groups (n=9-10) to receive vehicle (1% CMC, 2% TWEEN 80) or test compound at a dose of 100 mg/kg. Compounds were delivered orally via gavage, and 30 minutes later mice were dosed orally with 2 g/kg glucose.
(§3) The effect of GPR131 agonists on the secretion of total Glucagon-like peptide-2 (GLP-2) and total Peptide YY (PYY) was determined at the end of the oral glucose tolerance test (2 hours post glucose dosing). Animals were anesthetized with pentobarbital and blood collected by heart puncture in potassium EDTA-coated microtainer tubes containing 10 μl/ml DPP-IV inhibitor and 500 KIU/ml Aprotinin. Total GLP-2 was measured using Total Glucagon-like peptide-2 assay kit and Total PYY was measured using Total Peptide YY assay kit.

Peptide YY (PYY) = assay: Total PYY secretion at end of OGTT in DIO mice; assay type: in vivo; settings: C57BL/6J DIO mice, 100 mg/kg oral, 2 hours post glucose dosing
Experimental: as §2, §3

| activation at 1.1 µM (human GPR131) [%] | SMILES | Increase in GLP-1 (Fold) [1] [Fold] | Glucose Reduction (%) [2] [%] | Increase in GLP-2 (Fold) [3] [Fold] | Increase in PYY (Fold) (Peptide YY (PYY)) |
| --- | --- | --- | --- | --- | --- |
| 100 | Cc1cnccc1CN(C)C(=O)c1cnc(SCc2c(F)ccc(F)c2F)n1-c1ccc(F)cc1 [Compound 502, 1-(4-Fluorophenyl)-N-methyl-N-((3-methylpyridin-4-yl)methyl)-2-((2,3,6-trifluorobenzyl)thio)-1H-imidazole-5-carboxamide] | 2.2 | 27.7 |  |  |
| 99 | Cc1nn(C)cc1CN(C)C(=O)c1cnc(SCc2c(F)ccc(F)c2F)n1-c1ccc(F)cc1 [Compound 505, N-((1,3-Dimethyl-1H-pyrazol-4-yl)methyl)-1-(4-fluorophenyl)-N-methyl-2-((2,3,6-trifluorobenzyl)thio)-1H-imidazole-5-carboxamide] | 1.9 | 27.4 |  |  |
| 100 | Cc1cc(CN(C)C(=O)c2cnc(SCc3c(F)ccc(F)c3F)n2-c2ccc(F)cc2)ccn1 [Compound 577, 1-(4-Fluorophenyl)-N-methyl-N-((2-methylpyridin-4-yl)methyl)-2-((2,3,6-trifluorobenzyl)thio)-1H-imidazole-5-carboxamide] | 4.1 | 24.4 | 2.5 | 2.2 |
